Compound | pH of 1% w/v aqueous solution
O=C([O-])O.[Na+] [Sodium Bicarbonate, sodium bicarbonate] | pH 8.2
O=C([O-])CC(O)(CC(=O)[O-])C(=O)[O-].[Na+].[Na+].[Na+] [Sodium Citrate, sodium citrate] | pH 8.75

From patent US20030134832A1, “Novel tibolone formulations” (priority 2001, published 2003)
